Experimental data: ChEMBL document CHEMBL4673396, “Structural Basis for Targeting the Folded P-Loop Conformation of c-MET” (ACS Med Chem Lett, 2021)

Experiment: Lipophilicity, logD of the compound in octanol and water at pH 7.4 by shake-flask method
Assay type: physicochemical

SMILES	logD
Fc1ccccc1Cc1c[nH]c2ncc(-c3cnn(C4CCNCC4)c3)cc12	2.5
c1ccc(Cc2c[nH]c3ncc(-c4cnn(C5CCNCC5)c4)cc23)cc1	2.31
Fc1ccc(Cc2c[nH]c3ncc(-c4cnn(C5CCNCC5)c4)cc23)cc1	2.4
Fc1cccc(Cc2c[nH]c3ncc(-c4cnn(C5CCNCC5)c4)cc23)c1	2.4
O=C1NCc2c(-c3cnc4[nH]cc(Cc5ccccc5)c4c3)c[nH]c21	4
